The experiment is described as follows: Inhibition of MCP1-induced CCR2-mediated chemotaxis in human THP-1 cells.

By IC50 is commonly meant the concentration at which inhibition is half-maximal.

For the compound `CC(C)N1CCN[C@@H](C(=O)N2CCN(C(=O)Nc3ccc(Cl)c(Cl)c3)CC2)C1`, it took 5.1 nM to reach half-maximal inhibition (IC50).
